These results are taken from patent publication US20120065187A1 (ALCON RESEARCH, LTD, priority 2008, published 2012).

In one experiment the test system is CD-1 mice. The experiment can be described thus: Model of scratching induced by histamine in CD-1 mice (assessment of H4 antagonism). Type of experiment: in vivo. The note with it: 30 mg/kg oral gavage 30 min before i.d. histamine; bouts counted for 20 minutes; female CD-1 mice. As to the method:
Assessment of H4 Antagonism—Model of Scratching Induced by Histamine in CD-1 mice.
Female CD-1 mice (Charles River, Hollister, Calif.), approximately 10 weeks old were housed under controlled conditions (12 h light: 12 h dark, 21° C.) and allowed ad libitum access to food (Purina LabDiet 5P14) and water. Animals were deprived of access to food and water for 1 hour during the experimental itch protocol. All studies were performed under the guidelines of the Institutional Animal Care and Use Committee of Kalypsys, Inc.
At least 24 hours prior to study initiation, the hair on the rostral dorsum of the animal was clipped to clear a location for intradermal (i.d.) injection of pruritogen (histamine, dissolved in Dulbecco's PBS [pH 7.4] at a concentration of 10 μmol per 20 μL). Animals were dosed by oral gavage with vehicle (9/0.5/0.5/90 PEG-400/Tween-80/PVP-K30/1% carboxymethylcellulose in water) or test compounds (formulated as suspensions in vehicle) at 30 mg/kg in 200 μL by means of a 20 gauge 1.5″ feeding needle affixed to a 1 mL syringe. There were 8 mice per study group. Thirty minutes after oral dosing, animals were injected i.d. with 20 μL of histamine. Immediately afterward animals were placed into individual sections of a standard acrylic cage for observation, which was recorded digitally for a 20 minute period by video cameras (Panasonic SDR-S70/PC) for later review.
Quantitation of induced itch was measured as described previously (Bell, J. K. et al., British Journal of Pharmacology, 142:374-380, 2004) by counting the number of scratching bouts per animal in the 20 minute period after i.d. injection. A scratching bout was defined as three rapid scratch movements of the hind paw in the area of the injection site. Activity with the fore paws was deemed to be grooming and not scratching, and thus was not counted. All data were analyzed using GraphPad Prism (San Diego, Calif.) software, and reported as mean percentage reduction in scratching bouts versus vehicle control. The significance of antagonist effect on agonist-induced itching was analyzed using the nonparametric Mann-Whitney test with P values <0.05 being designated as statistically significant.
Data reported as NT refers to the example having been not tested. It is expected that these compounds when tested will be active and will have utility similar to those that have been tested. In Table 2 below, entries with superscript “1” are statistically significant according to the criteria outlined in the protocol above. Entries with superscript “2” are examples that have been tested on two separate days and the results reported below are the mean of the two experiments

Experiment [1] deals with Hartley VAF outbred guinea pigs. The experiment can be described thus: Allergic conjunctivitis in passively sensitized guinea pigs (conjunctival EPO activity). Type of experiment: in vivo. More on the design: key: +: a 0.01% bid dose was statistically equivalent to dexamethasone with respect to reduction of EPO activity; −: the compound was statistically inferior to dexamethasone and not different than vehicle. The note with it: 0.01% bid topical, 1 hour prior to and 8 hours after ovalbumin challenge; reduction of conjunctival EPO activity vs dexamethasone.

With `CN1CCN(c2nc3ccc(Cl)cc3n3cnnc23)CC1` [Example 55, 8-chloro-4-(4-methylpiperazin-1-yl)-[1,2,4]triazolo[4,3-a]quinoxaline], in the experiment on CD-1 mice, the “Scratching Bouts (% change from vehicle control)” value is on record as −65^1,2%. The BID activity entry in experiment [1] is recorded as “+”.

For the compound `Clc1ccc2nc(N3CCNCC3)c3nncn3c2c1` [Example 57, 8-chloro-4-(piperazin-1-yl)-[1,2,4]triazolo[4,3-a]quinoxaline], in the experiment with CD-1 mice, the “Scratching Bouts (% change from vehicle control)” value is −66^1%. Further, in experiment [1], the BID activity entry is “+”.
